Assay results published in patent US7574340B2 (priority 2003, dated 2009).

What was measured:
BoNT/A LC [1] = target: T1, BoNT/A LC (Clostridium botulinum, UniProt P0DPI0); assay: biochemical; assay type: biochemical
BoNT/A holotoxin = BoNT/A holotoxin (Clostridium botulinum, UniProt P0DPI0); conditions: 3.3 μM; cited from earlier work
[2] = target: BoNT serotype B light chain (BoNT/B LC) (Clostridium botulinum, UniProt P10844); assay type: biochemical
anthrax lethal factor = anthrax lethal factor (Bacillus anthracis, UniProt P15917); assay type: biochemical
Chain of anthrax lethal factor (P15917 34-809 limits assumed): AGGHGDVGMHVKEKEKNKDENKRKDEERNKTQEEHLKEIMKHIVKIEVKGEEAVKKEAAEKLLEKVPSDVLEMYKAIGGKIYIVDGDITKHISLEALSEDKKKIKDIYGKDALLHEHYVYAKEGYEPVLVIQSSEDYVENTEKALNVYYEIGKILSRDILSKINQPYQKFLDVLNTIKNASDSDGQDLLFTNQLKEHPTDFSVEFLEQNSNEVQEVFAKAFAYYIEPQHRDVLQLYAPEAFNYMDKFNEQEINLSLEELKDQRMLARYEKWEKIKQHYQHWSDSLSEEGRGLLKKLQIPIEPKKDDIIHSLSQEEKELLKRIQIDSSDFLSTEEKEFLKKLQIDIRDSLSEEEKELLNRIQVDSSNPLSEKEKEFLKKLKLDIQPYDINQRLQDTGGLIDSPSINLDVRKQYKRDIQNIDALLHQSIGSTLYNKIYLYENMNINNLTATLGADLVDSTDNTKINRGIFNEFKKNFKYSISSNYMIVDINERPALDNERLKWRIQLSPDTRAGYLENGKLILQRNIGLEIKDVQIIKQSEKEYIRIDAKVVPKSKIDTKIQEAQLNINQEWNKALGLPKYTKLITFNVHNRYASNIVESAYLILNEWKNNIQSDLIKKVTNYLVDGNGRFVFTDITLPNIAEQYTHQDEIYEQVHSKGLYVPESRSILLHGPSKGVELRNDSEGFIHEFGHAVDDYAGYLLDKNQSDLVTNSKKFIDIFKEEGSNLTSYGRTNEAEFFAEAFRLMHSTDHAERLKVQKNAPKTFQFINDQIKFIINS

BoNT/A LC [3] = target: T1, BoNT/A LC; conditions: cited from earlier work

T1 sequence (P0DPI0 2-448 limits assumed): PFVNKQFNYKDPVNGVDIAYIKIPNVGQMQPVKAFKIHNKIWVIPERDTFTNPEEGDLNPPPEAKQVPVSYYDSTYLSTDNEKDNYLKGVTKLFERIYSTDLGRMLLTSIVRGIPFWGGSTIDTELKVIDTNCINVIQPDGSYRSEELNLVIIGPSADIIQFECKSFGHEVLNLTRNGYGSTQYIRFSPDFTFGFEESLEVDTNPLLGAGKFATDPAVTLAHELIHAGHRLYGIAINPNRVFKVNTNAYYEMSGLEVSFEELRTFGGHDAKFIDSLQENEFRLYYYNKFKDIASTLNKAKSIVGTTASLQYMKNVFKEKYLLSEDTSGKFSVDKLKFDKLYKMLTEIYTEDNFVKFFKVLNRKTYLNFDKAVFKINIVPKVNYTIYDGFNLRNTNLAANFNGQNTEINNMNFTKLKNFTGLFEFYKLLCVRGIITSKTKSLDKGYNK
Chain of BoNT serotype B light chain (BoNT/B LC) (P10844 2-441 limits assumed): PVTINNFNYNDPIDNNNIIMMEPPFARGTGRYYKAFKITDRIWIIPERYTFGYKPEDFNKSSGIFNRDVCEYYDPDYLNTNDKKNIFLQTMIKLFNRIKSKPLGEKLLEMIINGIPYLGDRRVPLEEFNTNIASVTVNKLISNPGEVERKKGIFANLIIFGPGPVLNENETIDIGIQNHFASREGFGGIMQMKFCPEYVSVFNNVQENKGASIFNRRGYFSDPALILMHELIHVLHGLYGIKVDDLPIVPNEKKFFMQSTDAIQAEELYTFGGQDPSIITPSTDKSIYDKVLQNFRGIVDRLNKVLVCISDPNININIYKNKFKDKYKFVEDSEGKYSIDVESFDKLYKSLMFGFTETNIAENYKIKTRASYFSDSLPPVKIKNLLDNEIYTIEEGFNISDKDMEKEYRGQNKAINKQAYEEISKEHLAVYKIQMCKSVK
Chain of BoNT/A holotoxin (P0DPI0 2-448 limits assumed): as the sequence (P0DPI0 2-448 limits assumed) above
Chain of BoNT/A holotoxin (P0DPI0 449-1296 limits assumed): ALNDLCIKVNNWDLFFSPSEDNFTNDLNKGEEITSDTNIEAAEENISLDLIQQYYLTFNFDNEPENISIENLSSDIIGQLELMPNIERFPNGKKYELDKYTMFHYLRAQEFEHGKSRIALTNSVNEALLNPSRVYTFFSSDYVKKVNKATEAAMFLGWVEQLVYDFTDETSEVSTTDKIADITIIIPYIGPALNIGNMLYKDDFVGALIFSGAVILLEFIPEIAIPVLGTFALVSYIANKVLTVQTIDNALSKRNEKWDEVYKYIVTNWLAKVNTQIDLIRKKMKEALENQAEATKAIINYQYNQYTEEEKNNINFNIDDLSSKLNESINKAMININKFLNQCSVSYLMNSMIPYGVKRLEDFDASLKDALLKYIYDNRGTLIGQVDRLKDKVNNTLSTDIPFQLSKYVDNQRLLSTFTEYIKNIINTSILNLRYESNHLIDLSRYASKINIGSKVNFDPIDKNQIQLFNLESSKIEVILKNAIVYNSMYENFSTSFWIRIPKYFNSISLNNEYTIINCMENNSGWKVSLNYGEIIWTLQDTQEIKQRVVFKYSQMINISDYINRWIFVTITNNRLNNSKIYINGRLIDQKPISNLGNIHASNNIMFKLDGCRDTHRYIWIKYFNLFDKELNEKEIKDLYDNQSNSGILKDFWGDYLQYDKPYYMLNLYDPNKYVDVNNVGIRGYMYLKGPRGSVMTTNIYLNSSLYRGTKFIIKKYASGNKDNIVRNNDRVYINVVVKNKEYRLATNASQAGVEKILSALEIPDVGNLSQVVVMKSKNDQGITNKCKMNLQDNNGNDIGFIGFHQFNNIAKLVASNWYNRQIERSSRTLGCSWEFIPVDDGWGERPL

CCN(CC)CCCC(C)Nc1ccnc2cc(Cl)ccc12 (racemic) [Chloroquine (racemic), Chloroquine]
inhibition at 20 µM (BoNT/A LC [1]): 20%

CCN(CC)CCCC(C)Nc1c2ccc(Cl)cc2nc2ccc(OC)cc12 (racemic) [Quinacrine (racemic), Quinacrine]
inhibition at 20 µM (BoNT/A LC [1]): 30% | delay of the time to about 50% muscle paralysis (over control) (BoNT/A holotoxin): at least 30%

CCN(CC)Cc1cc(Nc2ccnc3cc(Cl)ccc23)ccc1O [Amodiaquine]
% Inhibition (BoNT/A LC [1]): 20% | inhibition at 20 µM (BoNT/A LC [1]): 30%

CCOc1ccc2c(ccc(/C=C/c3ccc4c(C)ccnc4c3O)[n+]2C)c1 [NSC 86372]
effect of addition of zinc on inhibition (BoNT/A LC [1]): immediately and quantitatively reversed inhibition | inhibition at 20 µM (BoNT/A LC [1]): 51% | inhibition of BoNT/B LC protease activity (in words) [2]: inhibit | inhibition of anthrax lethal factor (in words) (anthrax lethal factor): inhibit

O=C(O)c1c(I)c(I)c(I)c(I)c1C1c2ccc(O)cc2Oc2cc(O)ccc21 [NSC 119889]
inhibition at 20 µM (BoNT/A LC [1]): 56%

O=[N+]([O-])c1cc(Cc2cc([N+](=O)[O-])c3cccnc3c2O)c(O)c2ccccc12 [NSC 130796]
inhibition at 20 µM (BoNT/A LC [1]): 48% | inhibition of BoNT/B LC protease activity (in words) [2]: inhibit | inhibition of anthrax lethal factor (in words) (anthrax lethal factor): inhibit

Nc1c(/C=C/c2cc3cc(C4=NCCN4)ccc3o2)[nH]c2cc(C3=NCCN3)ccc12 [NSC 357756]
inhibition at 20 µM (BoNT/A LC [1]): 57%

Ic1ccc2nc3cc(Nc4ccc5c(c4)nc4ccc(I)cc4[n+]5-c4ccccc4)ccc3[n+](-c3ccccc3)c2c1 [NSC 402959]
inhibition at 20 µM (BoNT/A LC [1]): 40%

COc1cc(C)cc2c(-c3c(O)cc(O)c4c3C[C@@H](C)N[C@@H]4C)cc(-c3cc(-c4c(O)cc(O)c5c4C[C@@H](C)N[C@@H]5C)c4cc(C)cc(OC)c4c3O)c(O)c12 [NSC 661755, Michellamine B]
effect of added zinc on inhibition of BoNT/A LC (BoNT/A LC [1]): not affected by added zinc | inhibition at 20 µM (BoNT/A LC [1]): 62%

C[C@H](CS)C(=O)N1CCC[C@H]1C(=O)O [captopril]
BoNT/A LC inhibition (in words) (BoNT/A LC [3]): inhibited by mM concentrations

CCOC(=O)[C@H](CCc1ccccc1)N[C@@H](C)C(=O)N1CCC[C@H]1C(=O)O [enalapril]
BoNT/A LC inhibition (in words) (BoNT/A LC [3]): inhibited by mM concentrations

NCCCC[C@H](N[C@@H](CCc1ccccc1)C(=O)O)C(=O)N1CCC[C@H]1C(=O)O [lysinopril]
BoNT/A LC inhibition (in words) (BoNT/A LC [3]): inhibited by mM concentrations

[Ag+] [silver ion]
effect of addition of DTT on inhibition (BoNT/A LC [1]): immediately reversed inhibition | effect of zinc in assays on inhibition (BoNT/A LC [1]): no effect | inhibition of protease activity (BoNT/A LC [1]): about 100%

Quinidine
% Inhibition (BoNT/A LC [1]): 9 3%

Quinine
% Inhibition (BoNT/A LC [1]): 9 3%
